Data on 21 compounds can be found in patent US6720342B2, “Heterocyclic compounds and their preparation and use” (Novo Nordisk A/S, priority 1996, dated 2004).

Test [1] concerns the target T1, muscarinic receptors (M1-site, pirenzepine sensitive site) (Rattus norvegicus, UniProt P08482).
T1 construct: Fresh cortex (0.1-1 g) from male Wistar rats (150-200 g) is homogenized; from tissue; host or cells: rat (male Wistar) cerebral cortex membranes
T1 sequence (P08482 1-460): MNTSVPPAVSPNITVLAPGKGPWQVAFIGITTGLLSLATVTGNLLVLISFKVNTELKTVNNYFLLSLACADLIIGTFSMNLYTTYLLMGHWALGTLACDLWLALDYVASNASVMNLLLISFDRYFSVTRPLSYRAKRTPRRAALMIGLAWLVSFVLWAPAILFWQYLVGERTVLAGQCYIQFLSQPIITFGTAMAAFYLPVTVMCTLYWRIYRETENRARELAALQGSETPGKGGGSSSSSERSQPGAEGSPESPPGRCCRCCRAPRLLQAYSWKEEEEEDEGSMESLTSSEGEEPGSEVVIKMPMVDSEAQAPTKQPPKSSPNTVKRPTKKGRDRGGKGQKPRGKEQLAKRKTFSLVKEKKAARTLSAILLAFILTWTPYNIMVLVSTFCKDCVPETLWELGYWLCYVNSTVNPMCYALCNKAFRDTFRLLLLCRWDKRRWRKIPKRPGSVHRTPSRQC
As to the kind of experiment: Inhibition of 3H-PRZ (pirenzepine, [N-methyl-3H]) binding to rat cerebral cortex membranes. As to conditions: 1.0 nM 3H-Pirenzepine, 60 min at 20° C. The protocol: Furthermore the pharmacological properties of the compounds of the invention can also be illustrated by determining their capability to inhibit ^3H-PRZ (pirenzepine, [N-methyl-^3H]) binding to rat cerebral cortex membranes. Pirenzepine binds selectively to subtype of muscarinic receptors. Historically the type is named the M1-site, whereas pirenzepine sensitive site would be more appropriate. Although selective for M1-sites pirenzepine also interact with M2-sites.
All preparations are performed at 0-4° C. unless otherwise indicated. Fresh cortex (0.1-1 g) from male Wistar rats (150-200 g) is homogenized for 5-10 s. in 10 ml 20 mM Hepes pH: 7.4, with an Ultra-Turrax homogenizer. The homogenizer is rinsed with 2×10 ml of buffer and the combined suspension centrifuged for 15 min at 40,000×g. The pellet is washed three times with buffer. In each step the pellet is homogenized as before in 3×10 ml of buffer and centrifuged for 10 min at 40,000×g.
The final pellet is homogenized in 20 mM Hepes pH: 7.4 (100 ml per g of original tissue) and used for binding assay. Aliquots of 0.5 ml is added 20 μl of test solution and 25 μl of ^3H-Pirenzepine (1.0 nM, final conc.), mixed and incubated for 60 min at 20° C. Non-specific binding is determined in triplicate using atropine (1 μg/ml, final conc.) as the test substance. After incubation samples are added 5 ml of ice-cold buffer and poured directly onto Whatman GF/C glass fiber filters under suction and immediately washed 2 times with 5 ml of ice-cold buffer. The amount of radioactivity on the filters are determined by conventional liquid scintillation counting. Specific binding is total binding minus non-specific binding.
Test substances are dissolved in 10 ml water, at a concentration of 0.22 mg/ml. 25-75% inhibition of specific binding must be obtained before calculation of IC50.
The test value will be given as IC50 (the concentration (nM) of the test substance which inhibits the specific binding of ^3H-PRZ by 50%).
(§1) IC50=(applied test substance concentration)×(Cx/Co−Cx)nM
(§2) where Co is specific binding in control assays and Cx is the specific binding in the test assay. (The calculations assume normal mass-action kinetics).

For test [2], the target named is muscarinic acetylcholine receptors. As to the kind of experiment: Inhibition of specific binding of 3H-Oxotremorine-M (3H-Oxo) to rat cortex membranes. As to conditions: rat cortex homogenate, 1.0 nM 3H-Oxotremorine, 30 min at 25° C.
Source text: The pharmacological properties of the compounds of the invention can be illustrated by determining their capability to inhibit the specific binding of ^3H-Oxotremorine-M (^3H-Oxo). Birdsdall N. J. M., Hulme E. C., and Burgen A. S. V. (1980). “The Character of Muscarinic Receptors in Different Regions of the Rat Brain”. Proc. Roy. Soc. London (Series B) 207, 1.
^3H-Oxo labels muscarinic receptor in the CNS (with a preference for agonist domains of the receptors). Three different sites are labelled by ^3H-Oxo. […] Using the present experimental conditions only the high and medium affinity sites are determined.
The inhibitory effects of compounds on ^3H-Oxo binding reflects the affinity for muscarinic acetylcholine receptors.
All preparations are performed at 0-4° C. unless otherwise indicated. Fresh cortex (0.1-1 g) from male Wistar rats (150-250 g) is homogenized for 5-10 s in 10 ml 20 mM Hepes pH: 7.4, with an Ultra-Turrax homogenizer. The homogenizer is rinsed with 10 ml of buffer and the combined suspension centrifuged for 15 min. at 40,000×g. The pellet is washed three times with buffer. In each step the pellet is homogenized as before in 2×10 ml of buffer and centrifuged for 10 min. at 40,000×g.
The final pellet is homogenized in 20 mM Hepes pH: 7.4 (100 ml per g of original tissue) and used for binding assay. Aliquots of 0.5 ml is added 25 μl of test solution and 25 μl of ^3H-Oxotremorine (1.0 nM, final concentration) mixed and incubated for 30 min. at 25° C. Non-specific binding is determined in triplicate using arecoline (1 μg/ml, final concentration) as the test substance. After incubation samples are added 5 ml of ice-cold buffer and poured directly onto Whatman GF/C glass fiber filters under suction and immediately washed 2 times with 5 ml of ice-cold buffer. The amount of radioactivity on the filters are determined by conventional liquid scintillation counting. Specific binding is total binding minus non specific binding.
Test substances are dissolved in 10 ml water (if necessary heated on a steambath for less than 5 min.) at a concentration of 2.2 mg/ml. 25-75% inhibition of specific binding must be obtained before calculation of IC50.
The test value will be given as IC50 (the concentration (nM) of the test substance which inhibits the specific binding of ^3H-Oxo by 50%).
as §1, §2

Each structure is given as a SMILES string. Where a name gives a salt, the structure may show the parent alone.

The IC50 is the concentration needed to halve the response being measured. Low readings indicate higher potency, high ones lower potency.

Turning to `FCCSc1nsnc1OC1CN2CCC1C2` (stereo not drawn) [Compound 34, Endo 3-(3-[2-fluoroethyl-1-thio]-1,2,5-thiadiazol-4-yloxy)-1-azabicyclo-[2.2.1]heptane, oxalate], the concentration for half-maximal inhibition (IC50) in test [1] was determined as 31 nM.
On to `COc1cccc(C#CC(C)Oc2nsnc2OC2CN3CCC2C3)c1` (stereo not drawn) [Compound 17, Endo 3-(3-[4-(3-methoxyphenyl)-3-butyn-2-yloxy]-1,2,5-thiadiazol-4-yloxy)-1-azabicyclo[2.2.1]heptane, oxalate], for which the results for the 50% inhibitory concentration (IC50) in test [2] and in test [1] were 72 nM and 48 nM, respectively.
In the case of `CCCCSc1nsnc1OC1CN2CCC1C2` (stereo not drawn) [Compound 1, Endo 3-(3-butylthio-1,2,5-thiadiazol-4-yloxy)-1-azabicyclo[2.2.1]heptane, oxalate], the IC50 in test [2] was found to be 1.6 nM; in test [1], 0.14 nM.
On the same counts, the results for `FC(F)(F)CCSc1nsnc1OC1CN2CCC1C2` (stereo not drawn) [Compound 29, Endo 3-(3-(3,3,3-trifluoropropylthio)-1,2,5-thiadiazol-4-yloxy)-1-azabicyclo-[2.2.1]heptane, oxalate] are 3.1 nM and 9.1 nM.
As to `C(#Cc1ccsc1)COc1nsnc1OC1CN2CCC1C2` (stereo not drawn) [Compound 36, Endo 3-(3-[3-(3-thienyl)-2-propyn-1-yloxy]-1,2,5-thiadiazol-4-yloxy)-1-azabicyclo[2.2.1]heptane, oxalate], the IC50 in test [2] is 1 nM; in test [1] it was 4.7 nM.
For `CC#CCOc1nsnc1OC1CN2CCC1C2` (stereo not drawn) [Compound 11, Endo 3-(3-[2-butynyl-1-oxy]-1,2,5-thiadiazol-4-yloxy)-1-azabicyclo[2.2.1]heptane, oxalate], in that order: 2.1 nM and 23 nM.
Regarding `Fc1ccc(CSc2nsnc2OC2CN3CCC2C3)c(F)c1` (stereo not drawn) [Compound 33, Endo 3-(3-[2,4-difluorobenzylthio]-1,2,5-thiadiazol-4-yloxy)-1-azabicyclo-[2.2.1]heptane, oxalate], the 50% inhibitory concentration (IC50) in test [2] was found to be 83 nM; in test [1] it was 16 nM.
For `Fc1cc(C(F)(F)F)ccc1COc1nsnc1OC1CN2CCC1C2` (stereo not drawn) [Compound 16, Endo 3-(3-[2-fluoro-4-(trifluoromethyl)-benzyloxy]-1,2,5-thiadiazol-4-yloxy)-1-azabicyclo[2.2.1]heptane, oxalate], in that order: 148 nM and 129 nM.
On the same counts, the results for `C(#Cc1cccs1)COc1nsnc1O[C@H]1CN2CC[C@@H]1C2` [Compound 37, Endo 3-(3-[3-(2-thienyl)-2-propyn-1-yloxy]-1,2,5-thiadiazol-4-yloxy)-1-azabicyclo[2.2.1]heptane, oxalate] are 2.2 nM and 8.7 nM.
`FC(F)(F)c1cccc(C#CCOc2nsnc2OC2CN3CCC2C3)c1` (stereo not drawn) [Compound 20, Endo 3-(3-(3-(3-trifluoromethylphenyl)-2-propynyl-1-oxy)-1,2,5-thiadiazol-4-yloxy)-1-azabicyclo[2.2.1]heptane, oxalate] displayed a half-maximal inhibitory concentration (IC50) in test [1] of 11 nM. In other words, the double-digit nanomolar range.
On to `FC(F)(F)C(F)(F)C(F)(F)COc1nsnc1OC1CN2CCC1C2` (stereo not drawn) [Compound 27, Endo 3-(3-(2,2,3,3,4,4,4-heptafluorobutyl-1-oxy)-1,2,5-thiadiazol-4-yloxy)-1-azabicyclo[2.2.1]heptane, oxalate], for which the figures for the concentration for half-maximal inhibition (IC50) in test [2] and in test [1] were 8.3 nM and 5.3 nM, respectively.
On the same counts, the results for `Fc1ccc(C#CCOc2nsnc2OC2CN3CCC2C3)cc1` (stereo not drawn) [Compound 4, Endo 3-(3-[3-(4-fluorophenyl)-2-propynyl-1-oxy]-1,2,5-thiadiazol-4-yloxy)-1-azabicyclo[2.2.1]heptane, oxalate] are 7.9 nM and 8.3 nM.
On the same counts, the results for `COc1cccc(C#CC(Oc2nsnc2OC2CN3CCC2C3)C(C)C)c1` (stereo not drawn) [Compound 39, Endo 3-(3-[1-(3-methoxyphenyl)-4-methyl-1-pentyn-3-yloxy]-1,2,5-thiadiazol-4-yloxy)-1-azabicyclo[2.2.1]heptane, oxalate] are 105 nM and 56 nM.
For `Clc1ccc(C#CCOc2nsnc2OC2CN3CCC2C3)cc1` (stereo not drawn) [Compound 18, Endo 3-(3-[3-(4-chlorophenyl)-2-propynyl-1-oxy]-1,2,5-thiadiazol-4-yloxy)-1-azabicyclo[2.2.1]heptane, oxalate], in that order: 79 nM and 12 nM.
As to `C(CC1CC1)Oc1nsnc1OC1CN2CCC1C2` (stereo not drawn) [Compound 8, Endo 3-(3-[2-cyclopropylethyl-1-oxy]-1,2,5-thiadiazol-4-yloxy)-1-azabicyclo[2.2.1]heptane, oxalate], the figures for the IC50 in test [2] and in test [1] were 4.9 nM and 9.8 nM, respectively.
For `C(#Cc1ccoc1)COc1nsnc1OC1CN2CCC1C2` (stereo not drawn) [Compound 26, Endo 3-(3-(3-(3-furyl)-2-propyn-1-yloxy)-1,2,5-thiadiazol-4-yloxy)-1-azabicyclo[2.2.1]heptane, oxalate], in that order: 1.3 nM and 3.9 nM.
In the case of `Fc1cccc(C#CCOc2nsnc2OC2CN3CCC2C3)c1` (stereo not drawn) [Compound 28, Endo 3-(3-(3-(3-fluorophenyl)-2-propyn-1-yloxy)-1,2,5-thiadiazol-4-yloxy-1-azabicyclo[2.2.1]heptane, oxalate], the IC50 in test [2] came out at 5.5 nM. In other words, the single-digit nanomolar range.
The compound `N#Cc1ccc(CSc2nsnc2OC2CN3CCC2C3)cc1` (stereo not drawn) [Compound 31, Endo 3-(3-[4-cyanobenzylthio]-1,2,5-thiadiazol-4-yloxy)-1-azabicyclo-[2.2.1]heptane, oxalate] gave a half-inhibitory concentration (IC50) in test [1] of 23 nM.
Turning to `COc1cccc(C#CCOc2nsnc2OC2CN3CCC2C3)c1` (stereo not drawn) [Compound 6, Endo 3-(3-[3-(3-methoxyphenyl)-2-propynyl-1-oxy]-1,2,5-thiadiazol-4-yloxy)-1-azabicyclo[2.2.1]heptane, oxalate], in test [1], the concentration for half-maximal inhibition (IC50) was 17 nM. The IC50 values of the last two compounds are within 1.5-fold of each other.
In test [1], `FC(F)(F)CCCSc1nsnc1OC1CN2CCC1C2` (stereo not drawn) [Compound 30, Endo 3-(3-(4,4,4-trifluorobutylthio)-1,2,5-thiadiazol-4-yloxy)-1-azabicyclo-[2.2.1]heptane, oxalate] showed a 50% inhibitory concentration (IC50) of 3.4 nM.
The same measure, in the same setting: with `C1CC(COc2nsnc2OC2CN3CCC2C3)C1` (stereo not drawn) [Compound 41, Endo 3-(3-cyclobutylmethyloxy-1,2,5-thiadiazol-4-yloxy)-1-azabicyclo-[2.2.1]heptane, oxalate] the figure was 9.2 nM.
